# Data as given in patent US20100048462A1, “TRUNCATED PTH PEPTIDES WITH A CYCLIC CONFORMATION” (Zealand Pharma A/S, priority 2006, published 2010).
# Square brackets hold non-standard residues; d marks the D form. Peptide text beside a SMILES is read from it. hArg = N=C(N)NCCCC[C@H](N)C(=O)O; Ac5c = NC1(C(=O)O)CCCC1; Aib = CC(C)(N)C(=O)O
# T1: PTH receptor 1 (Mus musculus, UniProt P41593)
# T1 construct: host or cells: MC3T3-E1 subclone 4
# T1 sequence (P41593 27-591): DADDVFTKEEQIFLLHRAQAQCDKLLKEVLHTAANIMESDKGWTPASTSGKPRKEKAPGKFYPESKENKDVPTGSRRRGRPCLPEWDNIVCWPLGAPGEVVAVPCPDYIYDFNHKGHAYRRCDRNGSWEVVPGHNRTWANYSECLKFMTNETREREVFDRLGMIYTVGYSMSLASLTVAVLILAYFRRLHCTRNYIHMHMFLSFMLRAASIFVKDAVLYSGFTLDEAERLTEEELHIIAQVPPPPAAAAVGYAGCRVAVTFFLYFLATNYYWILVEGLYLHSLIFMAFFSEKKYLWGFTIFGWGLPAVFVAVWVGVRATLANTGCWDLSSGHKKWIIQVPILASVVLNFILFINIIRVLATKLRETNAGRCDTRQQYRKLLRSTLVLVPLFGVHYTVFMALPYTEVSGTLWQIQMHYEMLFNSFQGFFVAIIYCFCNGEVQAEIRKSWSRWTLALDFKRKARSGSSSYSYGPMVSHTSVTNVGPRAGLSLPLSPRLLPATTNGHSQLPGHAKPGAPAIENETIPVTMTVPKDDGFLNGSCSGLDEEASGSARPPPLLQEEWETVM
# T2: Saos-2 PTH1R (Homo sapiens, UniProt Q03431)
# T2 construct: endogenous in cells; host or cells: Saos-2
# T2 sequence (Q03431 27-593): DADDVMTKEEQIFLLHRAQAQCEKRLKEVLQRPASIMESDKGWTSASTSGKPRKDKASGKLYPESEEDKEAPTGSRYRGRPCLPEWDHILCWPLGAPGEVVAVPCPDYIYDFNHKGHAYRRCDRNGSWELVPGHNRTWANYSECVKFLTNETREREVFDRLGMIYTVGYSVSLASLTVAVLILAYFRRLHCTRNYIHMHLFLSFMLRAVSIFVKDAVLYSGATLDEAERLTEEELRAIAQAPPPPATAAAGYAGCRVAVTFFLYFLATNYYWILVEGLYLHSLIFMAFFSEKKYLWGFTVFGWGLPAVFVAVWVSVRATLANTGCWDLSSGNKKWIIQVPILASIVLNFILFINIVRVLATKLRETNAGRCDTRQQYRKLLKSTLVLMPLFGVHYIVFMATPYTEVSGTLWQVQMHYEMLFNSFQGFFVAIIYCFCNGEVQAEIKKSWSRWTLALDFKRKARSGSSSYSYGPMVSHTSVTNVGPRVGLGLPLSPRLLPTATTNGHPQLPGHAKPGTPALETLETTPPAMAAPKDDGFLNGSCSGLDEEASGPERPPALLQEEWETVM
# Legend:
# CYP2D6 [1] = molecular target: T3, CYP2D6 (Homo sapiens, UniProt P10635); experiment: CYP2D6 inhibition in pooled human liver microsomes; format: in vitro ADME; set-up: Pooled human liver microsomes (HLM, final concentration 0.05 mg protein/mL); tissue BD Biosciences 452161; host or cells: pooled human liver microsomes; conditions: 10 μM compound, dextrorphan formation rate
# In short: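 Pooled HLM (0.05 mg/mL) in 0.1 M KPi pH 7.4 with 5 μM dextromethorphan and 10 μM test compound, preincubated 5 min at 37 °C, then started with NADPH-regenerating system for 5 min. Dextrorphan quantified by LC/MS/MS; activity expressed as % of vehicle; <70% considered significant.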
# PTH receptor 1 = molecular target: T1, PTH receptor 1; experiment: MC3T3-E1 cAMP efficacy assay; format: cell-based, murine; conditions: MC3T3-E1 cells; for Emax ± SEM [pmol/well]: maximally inducible cAMP
# Experimental: MC3T3-E1 cells were seeded at 10,000 cells/well in 96-microtiter plates and grown overnight before the efficacy assays. On the day of analysis the growth medium was carefully removed by suction. Cells were washed once with 200 μl TB/0.1% […]. The buffer was replaced with 100 μl reaction mixture (±test peptide, +100 μM IBMX) and incubated at 37° C. for 13 min. The reaction was stopped by addition of 25 μl of ice-cold 0.5 M HCl. Cells were in the following incubated on ice for 60 min. 75 μl acetate-buffer were added to each well in a 96-well cAMP FlashPlate. […] FlashPlates were incubated overnight at 4° C., emptied by suction and counted in a TopCounter.
# Determinations were performed in triplicates at all doses. Standards were included as single determinations, duplicates or triplicates in each experiment, preferentially on each plate.
# Efficacy was evaluated in the concentration range from […].
# Concentration-dependent cAMP responses were imported into GraphPad Prism vers. 4, transformed and plotted. Curves were fitted with a function for sigmoidal dose response curve non-linear fit Y=Bottom+(Top-Bottom)/(1+10̂((LogEC50-X))) where X is the logarithm of concentration and Y is the response. Y starts at Bottom and goes to Top with a sigmoid shape. pEC50 and the maximally inducible concentration of cAMP were evaluated. Overall statistical differences were analyzed using one-way ANOVA. Post-hoc comparisons were made by the use of Fisher's Least Significance Test. Results were considered significant, when p was lower than 0.05.
# Saos-2 PTH1R [2] = molecular target: T2, Saos-2 PTH1R; experiment: cAMP-efficacy assay in Saos-2 cells; format: cell-based
# In short: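 cAMP accumulation was assayed by FlashPlate after 15 min peptide stimulation at 37 °C of Saos-2 cells in Tyrode's buffer containing 100 μM IBMX and 0.1% BSA, with the reaction stopped by ice-cold HCl. Variable-slope logistic fitting gave EC50/pEC50, Hill coefficient and Emax, with single or triplicate points.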
# [3] = molecular target: PTH receptor 1 on MC3T3-E1 cells (murine) (UniProt P41593); experiment: cell-based or functional assay
# Saos-2 PTH1R [4] = molecular target: Saos-2 PTH1R (UniProt Q03431); experiment: cell-based or functional assay
# CYP2D6 [5] = molecular target: T3, CYP2D6; experiment: cell-based or functional assay
# T3 sequence (P10635 whole entry): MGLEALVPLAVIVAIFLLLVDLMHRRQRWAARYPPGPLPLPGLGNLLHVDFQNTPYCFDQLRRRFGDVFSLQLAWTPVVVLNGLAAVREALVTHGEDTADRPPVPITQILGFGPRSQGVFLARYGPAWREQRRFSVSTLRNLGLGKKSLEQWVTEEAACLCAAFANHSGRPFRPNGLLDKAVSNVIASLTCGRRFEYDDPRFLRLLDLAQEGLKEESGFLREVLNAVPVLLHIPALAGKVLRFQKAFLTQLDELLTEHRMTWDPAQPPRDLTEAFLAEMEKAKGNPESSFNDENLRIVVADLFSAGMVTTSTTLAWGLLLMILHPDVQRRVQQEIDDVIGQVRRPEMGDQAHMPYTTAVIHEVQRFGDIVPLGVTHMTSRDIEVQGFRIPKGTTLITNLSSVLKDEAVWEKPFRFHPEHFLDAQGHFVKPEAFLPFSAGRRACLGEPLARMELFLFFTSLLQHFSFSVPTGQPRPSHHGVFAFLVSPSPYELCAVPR
Molecule,CYP2D6 activity (% of vehicle) (CYP2D6 [1]),"EC50 (PTH receptor 1; cAMP, 100 μM IBMX, 37° C.) [nM]",Emax ± SEM [pmol/well] (PTH receptor 1),"EC50 (Saos-2 PTH1R [2]; cAMP, 100 μM IBMX, 37° C. 15 min, suffix of label = salt tested) [nM]",Emax ± SEM (Saos-2 PTH1R [2]; relative effect to the control (SEQ ID NO: 32)),agonism on PTH receptor cAMP signalling (PTH receptor 1),"Emax, cAMP efficacy assay in MC3T3-E1 cells [3] [pmol/well]","agonist potency relative to SEQ ID NO: 2, cAMP in MC3T3-E1 cells [3] [fold weaker]","pEC50, cAMP efficacy assay in MC3T3-E1 cells [3]","Emax, cAMP efficacy assay in Saos-2 cells (3T, trifluoroacetate salt) (relative to control (SEQ ID NO: 32)) (Saos-2 PTH1R [4])","pEC50, cAMP efficacy assay in Saos-2 cells (3T, trifluoroacetate salt) (Saos-2 PTH1R [4])","CYP2D6 activity (% of vehicle), dextrorphan formation rate in human liver microsomes, 10 µM peptide (CYP2D6 [5])"
"CC[C@H](C)[C@H](NC(=O)[C@H](CCC(=O)O)NC(=O)C(C)(C)NC(=O)[C@@H](NC(=O)C1(N)CCCC1)C(C)C)C(=O)N[C@@H](CCC(N)=O)C(=O)N[C@@H](CC(C)C)C(=O)N[C@@H](CCSC)C(=O)N[C@@H](Cc1c[nH]cn1)C(=O)N[C@@H](CCC(N)=O)C(=O)N[C@@H](CCCCNC(=N)N)C(=O)N[C@@H](C)C(=O)N[C@@H](CCCCN)C(=O)N[C@@H](Cc1c[nH]c2ccccc12)C(N)=O [SEQ ID NO: 31, H-Ac5c-Val-Aib-Glu-Ile-Gln-Leu-Met-His-Gln-Har-Ala-Lys-Trp-NH2, reference compound] (H-[Ac5c]V[Aib]EIQLMHQ[hArg]AKW-NH2)",22 % of vehicle,3.98,4.5 ± 1.0,21.9,1.07 ± 0.04,–,–,–,–,–,–,–
"CC[C@H](C)[C@H](NC(=O)[C@H](CCC(=O)O)NC(=O)[C@H](CO)NC(=O)[C@@H](NC(=O)[C@@H](N)CO)C(C)C)C(=O)N[C@@H](CCC(N)=O)C(=O)N[C@@H](CC(C)C)C(=O)N[C@@H](CCSC)C(=O)N[C@@H](Cc1c[nH]cn1)C(=O)N[C@@H](CC(N)=O)C(=O)N[C@@H](CC(C)C)C(=O)NCC(=O)N[C@@H](CCCCN)C(=O)N[C@@H](Cc1c[nH]cn1)C(=O)N[C@@H](CC(C)C)C(=O)N[C@@H](CC(N)=O)C(=O)N[C@@H](CO)C(=O)N[C@@H](CCSC)C(=O)N[C@@H](CCC(=O)O)C(=O)N[C@@H](CCCNC(=N)N)C(=O)N[C@H](C(=O)N[C@@H](CCC(=O)O)C(=O)N[C@@H](Cc1c[nH]c2ccccc12)C(=O)N[C@@H](CC(C)C)C(=O)N[C@@H](CCCNC(=N)N)C(=O)N[C@@H](CCCCN)C(=O)N[C@@H](CCCCN)C(=O)N[C@@H](CC(C)C)C(=O)N[C@@H](CCC(N)=O)C(=O)N[C@@H](CC(=O)O)C(=O)N[C@H](C(=O)N[C@@H](Cc1c[nH]cn1)C(=O)N[C@@H](CC(N)=O)C(=O)N[C@@H](Cc1ccccc1)C(=O)O)C(C)C)C(C)C [SEQ ID NO: 32, reference compound]",–,–,4.4 ± 0.4,–,–,robust cAMP response,–,–,–,–,–,–
H-[Ac5c]V[Aib]EIQLMHQ[hArg]AKWLNN-NH2 (SMILES CC[C@H](C)[C@H](NC(=O)[C@H](CCC(=O)O)NC(=O)C(C)(C)NC(=O)[C@@H](NC(=O)C1(N)CCCC1)C(C)C)C(=O)N[C@@H](CCC(N)=O)C(=O)N[C@@H](CC(C)C)C(=O)N[C@@H](CCSC)C(=O)N[C@@H](Cc1c[nH]cn1)C(=O)N[C@@H](CCC(N)=O)C(=O)N[C@@H](CCCCNC(=N)N)C(=O)N[C@@H](C)C(=O)N[C@@H](CCCCN)C(=O)N[C@@H](Cc1c[nH]c2ccccc12)C(=O)N[C@@H](CC(C)C)C(=O)N[C@@H](CC(N)=O)C(=O)N[C@@H](CC(N)=O)C(N)=O) [H-Ac5c-Val-Aib-Glu-Ile-Gln-Leu-Met-His-Gln-Har-Ala-Lys-Trp-Leu-Asn-Asn-NH2],–,–,–,–,–,–,5.5,2 to 3,8.6 -log(M),1.06,8.04 -log(M),21 % of vehicle
